Data as given in the NIST ThermoML archive (doi:10.1016/j.tca.2009.06.015).
Several values for one entry are separate records, joined by “and”; a condition that tells them apart may be missing. Equal entries are not always repeated.

What was measured:
[1] = refractive index (Na D-line) (dimensionless); settings: 101.33 kPa, Liquid, Standard Abbe refractometry
[2] = 101 kPa, Liquid; for viscosity: Capillary tube (Ostwald / Ubbelohde) method; for mass density: Vibrating tube method
[3] = refractive index (Na D-line) (dimensionless); xn = mol fraction of the nth substance listed; settings: 101 kPa, Liquid, Standard Abbe refractometry
[4] = xn = mol fraction of the nth substance listed; settings: 101 kPa, Liquid; for viscosity: Capillary tube (Ostwald / Ubbelohde) method; for mass density: Vibrating tube method

CCCCCC(C)O (stereo unspecified) [2-heptanol]
Settings | mass density, [2] [kg/m3] | refractive index, [1] | viscosity, [2] [mPa·s]
293.15 K | 817.18 | 1.4206 | 6.52
298.15 K | 813.33 | 1.4188 | 5.33
303.15 K | 809.44 | 1.4165 | 4.301
308.15 K | 805.5 | 1.4143 | 3.528

CC#N [acetonitrile] + CCCC(C)O
x1 = 1
Settings | mass density, [4] [kg/m3] | refractive index, [3] | viscosity, [4] [mPa·s]
293.15 K | 782.04 | 1.3436 | 0.3542
298.15 K | 776.64 | 1.3411 | 0.3369
303.15 K | 771.21 | 1.339 | 0.3254
308.15 K | 765.75 | 1.3371 | 0.3082

CCCC(C)O (stereo unspecified) [pentan-2-ol]
Settings | mass density, [2] [kg/m3] | refractive index, [1] | viscosity, [2] [mPa·s]
293.15 K | 809.29 | 1.406 | 4.298
298.15 K | 805.24 | 1.4045 | 3.478

CC(C)O [propan-2-ol]
Settings | mass density, [2] [kg/m3] | refractive index, [1] | viscosity, [2] [mPa·s]
293.15 K | 785.19 | 1.3766 | 2.351
298.15 K | 780.98 | 1.3745 | 2.044
303.15 K | 776.71 | 1.3724 | 1.758
308.15 K | 772.36 | 1.3703 | 1.532

CC(C)O [propan-2-ol] + CC#N
x2 = 0
Settings | mass density, [4] [kg/m3] | refractive index, [3] | viscosity, [4] [mPa·s]
293.15 K | 785.19 | 1.3766 | 2.351
298.15 K | 780.98 | 1.3745 | 2.044
303.15 K | 776.71 | 1.3724 | 1.758
308.15 K | 772.36 | 1.3703 | 1.532

CC#N [acetonitrile] + CCCCCC(C)O
x1 = 1
Settings | mass density, [4] [kg/m3] | refractive index, [3] | viscosity, [4] [mPa·s]
293.15 K | 782.04 | 1.3436 | 0.3542
298.15 K | 776.64 | 1.3411 | 0.3369
303.15 K | 771.21 | 1.339 | 0.3254
308.15 K | 765.75 | 1.3371 | 0.3082

CC#N [acetonitrile] + CCCCC(C)O
x1 = 1
Settings | mass density, [4] [kg/m3] | refractive index, [3] | viscosity, [4] [mPa·s]
293.15 K | 782.04 | 1.3436 | 0.3542
298.15 K | 776.64 | 1.3411 | 0.336
303.15 K | 771.21 | 1.339 | 0.325
308.15 K | 765.75 | 1.3371 | 0.308

CCCCC(C)O (stereo unspecified) [2-hexanol]
Settings | mass density, [2] [kg/m3] | refractive index, [1] | viscosity, [2] [mPa·s]
293.15 K | 814.08 | 1.4135 | 5.155
298.15 K | 810.14 | 1.4116 | 4.1
303.15 K | 806.13 | 1.4093 | 3.41
308.15 K | 802.06 | 1.4077 | 2.819

CC#N [acetonitrile] + CCC(C)O
x1 = 1
Settings | mass density, [4] [kg/m3] | refractive index, [3] | viscosity, [4] [mPa·s]
293.15 K | 782.04 | 1.3436 | 0.3542
298.15 K | 776.64 | 1.3411 | 0.3369
303.15 K | 771.21 | 1.339 | 0.3254
308.15 K | 765.75 | 1.3371 | 0.3082

CCC(C)O (stereo unspecified) [butan-2-ol]
Settings | mass density, [2] [kg/m3] | refractive index, [1] | viscosity, [2] [mPa·s]
293.15 K | 806.57 | 1.3966 | 3.912
298.15 K | 802.56 | 1.3946 | 3.132
303.15 K | 798.26 | 1.3924 | 2.534
308.15 K | 793.96 | 1.3905 | 2.172

CC#N [acetonitrile]
Settings | mass density, [2] [kg/m3] | refractive index, [1] | viscosity, [2]
293.15 K | 782.04 | 1.3436 | 0.3542 mPa·s
298.15 K | 776.64 | 1.3411 | 0.3369 mPa·s and 0.336 mPa·s
303.15 K | 771.21 | 1.339 | 0.3254 mPa·s and 0.325 mPa·s
308.15 K | 765.75 | 1.3371 | 0.3082 mPa·s and 0.308 mPa·s
